In the test the test system is Archaea. The experiment in a line: Laboratory Study 4: methane concentration in control and test samples with AMRs. It is filed as cell-based. Here is the method: Use of diallyl sulfide, which may be considered a synthetic garlic oil (GOS), was evaluated for its ability to control Archaea compared to the effects of other potential AMRs such as natural/pressed Garlic Oil (GO) and dehydrated Garlic Powder (GP). Control samples with and without contaminants were captured along with test samples that included contaminants and different concentrations (250 ppm and 500 ppm) of different AMRs (GO, GOS and GP). The concentration of methane in each of the samples was measured at 0, 9, 16 and 23 days.

With `C=CCSCC=C` [GOS, diallyl sulfide], the “control response in terms of methane production” value (250 ppm and 500 ppm, 23 days incubation) is reported as “best control response”. For the setting “500 ppm lasting longer than 250 ppm”, the “length and magnitude of antimethanogenic responses” value was “concentration dependent”.

The values above are taken from patent US20180093308A1, “METHANOGENESIS CONTROL DURING ENVIRONMENTAL APPLICATIONS USING ANTIMETHANOGENIC REAGENTS” (Innovative Environmental Technologies, Inc, priority 2016, published 2018).
